Measured values from ChEMBL document CHEMBL1201862, “PubChem BioAssay data set” (2004).
The source made the active and inactive calls.

What was measured:
[1] = target: T1, Heat shock factor protein 1 (Mus musculus, UniProt P38532); assay: decrease of HSF1-responsive luciferase luminescence – cell-based, NIH3T3, dose retest, confirmation (AID 2382); assay type: functional;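 note: NIH3T3 fibroblasts with HSF1-driven luciferase reporter stressed by proteasome inhibitor MG132; luminescence from HSF1-driven luciferase expression after 8 hours of MG132 stress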
T1 sequence (P38532 whole entry): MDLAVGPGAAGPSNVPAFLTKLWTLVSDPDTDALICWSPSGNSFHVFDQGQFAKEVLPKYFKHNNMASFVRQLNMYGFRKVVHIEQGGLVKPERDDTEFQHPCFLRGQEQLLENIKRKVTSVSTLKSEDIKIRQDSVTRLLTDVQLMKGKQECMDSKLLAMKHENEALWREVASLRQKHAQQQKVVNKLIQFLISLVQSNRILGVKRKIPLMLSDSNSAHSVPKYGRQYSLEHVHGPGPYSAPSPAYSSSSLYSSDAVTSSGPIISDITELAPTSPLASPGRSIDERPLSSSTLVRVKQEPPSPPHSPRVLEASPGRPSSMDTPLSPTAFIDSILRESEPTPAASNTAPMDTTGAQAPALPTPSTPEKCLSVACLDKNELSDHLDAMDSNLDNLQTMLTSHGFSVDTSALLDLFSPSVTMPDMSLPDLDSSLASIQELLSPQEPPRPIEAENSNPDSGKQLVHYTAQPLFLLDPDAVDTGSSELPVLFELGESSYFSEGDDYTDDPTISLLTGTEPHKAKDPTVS

Cytochrome P450 2C19 = Cytochrome P450 2C19 (Homo sapiens, UniProt P33261); assay: Cytochrome panel assay with activity outcomes. Panel member name: p450-cyp2c19 Compounds with AC50 equal or less than 10 uM are considered active; assay type: functional; conditions: read-out: AC50
Sequence of Cytochrome P450 2C19 (P33261 whole entry): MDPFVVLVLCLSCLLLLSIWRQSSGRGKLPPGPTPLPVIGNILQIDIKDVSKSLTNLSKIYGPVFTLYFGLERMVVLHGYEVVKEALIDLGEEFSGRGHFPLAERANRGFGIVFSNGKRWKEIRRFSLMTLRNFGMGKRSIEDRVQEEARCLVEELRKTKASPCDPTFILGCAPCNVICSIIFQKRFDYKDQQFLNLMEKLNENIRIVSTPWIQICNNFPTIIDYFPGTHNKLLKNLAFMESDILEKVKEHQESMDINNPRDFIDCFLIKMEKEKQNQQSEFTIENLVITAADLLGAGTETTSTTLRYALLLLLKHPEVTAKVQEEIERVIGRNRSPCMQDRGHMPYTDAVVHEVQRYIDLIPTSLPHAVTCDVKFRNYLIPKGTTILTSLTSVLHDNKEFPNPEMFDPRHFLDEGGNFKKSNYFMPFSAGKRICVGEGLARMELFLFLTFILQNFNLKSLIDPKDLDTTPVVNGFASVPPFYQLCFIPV

[2] = Trypanosoma cruzi growth suppression in host cells – NIH3T3 host cells, beta-gal luminescence, confirmation (AID 2044); assay type: functional, cell-based;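 note: intracellular parasites grown in NIH/3T3 mouse fibroblasts as host cells; luminescent beta-galactosidase reporter signal from transgenic T. cruzi replicating inside host cells; inhibitors lower the luminescence signal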
[3] = NIH3T3 cell viability loss – ATP luminescence, mouse fibroblasts, counter-screen, dose response (AID 2010); assay type: functional, cell-based;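 note: cells exposed to compound for about 90 hours before reading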
[4] = Luminescence Cell-Based Dose Retest to Confirm Inhibitors of Cancer Stem Cells. [Related pubchem assays (depositor defined):AID2717, AID2721]; assay type: functional; conditions: Homo sapiens
[5] = test system: Streptococcus sp. 'group A'; assay: Streptococcus pyogenes SK(-)GAS viability under kanamycin – luminescence, BacTiterGlo, confirmation, counter-screen for streptokinase expression inhibitor project, dose response (AID 1900); assay type: functional, organism-based
Streptokinase A = target: T2, Streptokinase A (Streptococcus pyogenes serotype M1, UniProt P10520); assay: viability-normalized secreted streptokinase activity reduction – plasminogen activation absorbance, OD405, dose response (AID 1914); assay type: functional, Streptococcus pyogenes M1 GAS;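 note: secreted streptokinase activity via plasminogen activation per viability signal from cell pellet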
T2 sequence (P10520 whole entry): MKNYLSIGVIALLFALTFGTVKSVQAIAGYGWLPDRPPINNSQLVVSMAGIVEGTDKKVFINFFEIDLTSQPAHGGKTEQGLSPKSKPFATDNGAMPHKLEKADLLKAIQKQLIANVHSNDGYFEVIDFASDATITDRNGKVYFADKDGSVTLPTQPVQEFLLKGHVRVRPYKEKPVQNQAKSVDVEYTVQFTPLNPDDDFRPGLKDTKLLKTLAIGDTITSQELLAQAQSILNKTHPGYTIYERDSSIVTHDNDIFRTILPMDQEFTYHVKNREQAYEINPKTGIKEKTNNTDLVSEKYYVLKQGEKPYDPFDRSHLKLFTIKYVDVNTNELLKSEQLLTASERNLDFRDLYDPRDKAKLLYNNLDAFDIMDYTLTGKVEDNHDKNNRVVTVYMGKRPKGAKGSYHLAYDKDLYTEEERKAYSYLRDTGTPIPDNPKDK

Streptococcus = assay: GAS UMAA2166 growth inhibition – luminescence, BacTiterGlo, counter-screen for streptokinase expression inhibitor project, dose response (AID 1915); assay type: functional, organism-based;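 note: potency for reduction of bacterial viability or growth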
[6] = luciferase reporter signal suppression in cells – H4 neuroglioma cells, luminescence, dose response (AID 1990); assay type: functional, cell-based
[7] = Luminescence Cell-Based Dose Response HTS to Identify Inhibitors of 5'UTR Stem-Loop Driven Prion Protein mRNA Translation in H4 Neuroglioblastoma Cells. [Related pubchem assays: 1827 (Project Summary), 1813 (Primary HTS)]; assay type: functional
[8] = alpha-synuclein stem-loop luciferase translation blockers – H4 neuroglioma cells, luminescence, confirmation (AID 1988); assay type: functional, cell-based

## CC(C)Oc1cccc(C(=O)NC(=S)Nc2ccccc2)c1
[1]
  EC50: > 195 µM (not active)

## O=C(c1cccc(S(=O)(=O)N2CCOCC2)c1)N(Cc1nnc(-c2ccccc2Cl)o1)C1CC1
[1]
  EC50: > 195 µM (not active)

## CCN=C(S)NC1CC2CCCC(C1)N2Cc1ccco1 (stereo not drawn)
Cytochrome P450 2C19
  AC50: 14.1 µM (inconclusive)

## CCOC(=O)C1(Cc2ccccc2)CCCN(CCCn2cccn2)C1 (stereo not drawn)
[1]
  EC50: > 195 µM (not active)

## O=C(Nc1cccc(S(=O)(=O)c2cccc(NC(=O)c3ccco3)c2)c1)c1ccco1
[2]
  EC50: 0.869 µM (active)
[3]
  EC50: > 60 µM (not active)

## CN(Cc1ccccc1)Cc1c[nH]c2ccccc12
[2]
  EC50: 0.972 µM (active)
[3]
  EC50: > 60 µM (not active)

## CCCc1nc2ccccc2c(C(=O)OCC(=O)Nc2ccc(S(=O)(=O)N3CCOCC3)cc2)c1CC
[4]
  AC50: 4.04 µM (active)
[5]
  EC50: 18.1 µM (active)
Streptokinase A
  EC50: 26 µM (active)
Streptococcus
  EC50: 52.8 µM (active)

## Cc1cc2c(c(=O)n1Cc1ccc3c(c1)OCO3)C(c1cccnc1)C(C#N)=C(N)O2 (stereo not drawn)
[2]
  EC50: 1.94 µM (active)
[3]
  EC50: > 60 µM (not active)

## c1ccc(CCn2nnnc2C(c2cccnc2)N2CCN(c3ccccc3)CC2)cc1 (stereo not drawn)
[2]
  EC50: 0.263 µM (active)
[3]
  EC50: 4.77 µM (active)

## COc1ccc(/C=C/C(=O)c2ccccc2)cc1Cn1nnc2ccccc21
[4]
  AC50: 4.11 µM (active)

## N#C/C(=C(/O)COc1ccccc1)c1nc2ccccc2s1
[5]
  EC50: 26.7 µM (active)
Streptokinase A
  EC50: 7.55 µM (active)
Streptococcus
  EC50: > 150 µM (not active)

## CC(=O)c1cccc(NC(=O)C2CC(=O)N(CCc3ccccc3)C2)c1 (stereo not drawn)
[1]
  EC50: > 195 µM (not active)

## COc1ccc2nc(N=C(N)N=C(S)Nc3c(C)cccc3C)nc(C)c2c1
[5]
  EC50: 21.7 µM (active)
Streptococcus
  EC50: > 150 µM (not active)

## COc1ccc2nc(N=C(N)NC(=S)Nc3c(C)cccc3C)nc(C)c2c1
Streptokinase A
  EC50: 42 µM (inconclusive)

## Cc1cc(Nc2nc(Cl)c(Cl)cc2Cl)n(-c2ccccc2)n1
[4]
  AC50: 3.95 µM (active)

## Cc1ccc(NC(=O)N(Cc2cccnc2)Cc2ccco2)cc1C
[2]
  EC50: 1.39 µM (active)
[3]
  EC50: > 60 µM (not active)

## COc1ccc(CNC(=O)CCCNC(=O)c2ccc(Cl)cc2)cc1OC
[1]
  EC50: > 195 µM (not active)

## COc1ccc(OC)c(N(CC(=O)Nc2ccccc2)S(C)(=O)=O)c1
[1]
  EC50: > 195 µM (not active)

## CC(C)c1ccccc1OCC(O)CN(CC(O)COc1cccc2ccccc12)C(C)C (stereo not drawn)
[2]
  EC50: 3.45 µM (active)
[4]
  AC50: 2.82 µM (active)
[5]
  EC50: 4.05 µM (active)
Streptococcus
  EC50: 7.04 µM (active)
[3]
  EC50: > 30 µM (not active)

## Cn1c(CCC(=O)Nc2ccc(N3CCOCC3)cc2)nc(=O)c2ccccc21
Cytochrome P450 2C19
  AC50: 35.5 µM (inconclusive)

## c1cnc2ccc(C(c3nnnn3C3CCCCC3)N3CCN(C4CCCCC4)CC3)cc2c1 (stereo not drawn)
[2]
  EC50: 8.47 µM (active)
[3]
  EC50: 4.37 µM (active)

## O=C(Nc1cccc(Cl)c1)Nc1ccccc1-n1ccnc1
[2]
  EC50: 0.461 µM (active)
[3]
  EC50: > 60 µM (not active)

## Cc1ccc2c(c1)C1CN(C)CCC1N2C(=O)c1cccc(S(=O)(=O)N2CC(C)CC(C)C2)c1 (stereo not drawn)
[2]
  EC50: 0.216 µM (active)
[3]
  EC50: > 30 µM (not active)

## Cc1ccc(S(=O)(=O)N(C)c2ccc(OCc3cccc(C)c3)cc2)cc1
[4]
  AC50: 0.898 µM (active)

## CC(C)c1ccc2c(c1)c(SC(C)(C)C)c(CC(C)(C)C(=O)O)n2Cc1ccc(Cl)cc1
[5]
  EC50: 1.07 µM (active)
Streptokinase A
  EC50: 1.24 µM (active)

## NC(=O)N/N=C/c1ccc2cccc(OCc3ccccc3)c2n1
[6]
  EC50: 17.8 µM (active)
[7]
  EC50: > 120 µM (not active)
[8]
  EC50: 61 µM (active)

## C/C(=N\NC(=O)CN1CCN(Cc2ccccc2)CC1)c1cccs1
[1]
  EC50: > 195 µM (not active)

## Fc1ccc(CO/N=C/C2=C(Cl)c3ccccc3CC2)cc1
[1]
  EC50: > 195 µM (not active)
[5]
  EC50: 6.39 µM (active)
Streptokinase A
  EC50: 13.5 µM (active)
Streptococcus
  EC50: > 150 µM (not active)

## CCO/C(O)=C(/C=N/c1ccccc1)[N+](=O)[O-]
Cytochrome P450 2C19
  AC50: 14.1 µM (inconclusive)
